Common to all, as to test: ARTS-1 aminopeptidase activity assay (amide bond hydrolysis of amino acid p-nitroanilide substrates, absorbance at 380 nm)
Series [1] addresses T1, recombinant GST-ARTS-1 fusion protein (Homo sapiens, UniProt Q9NZ08).
T1 construct: ARTS-1 extracellular domain (i.e., the ectodomain; amino acids 30–941) was PCR amplified; made in house
The format is biochemical. Particulars: for Vmax: aa-pNA substrate 0.25 to 8 mM, 24 pmoles GST-ARTS-1, 50 mM Tris pH 7.5, room temperature, 1 hour; for Vmax / Km: Lineweaver-Burk; for kcat / Km: aa-pNA substrate with GST-ARTS-1; for aminopeptidase activity of recombinant GST-ARTS-1 against the amino acid substrate: acidic or basic amino acid p-nitroanilide substrates. How it is done:
(§1) To accomplish this, commercially available amino acid p-nitroanilide substrates were incubated with purified GST-ARTS-1 fusion protein for 1 hour under conditions of linear enzyme activity over time. The rate of amide bond hydrolysis was determined by measuring the absorbance of the p-nitroaniline aminopeptidase reaction product at 380 nm. Each experimental point was run in triplicate and each determination utilized six concentrations of amino acid p-nitroanilide substrate. Kinetic constants were determined by Lineweaver-Burk analysis. Correlation coefficients for each line generated were greater than 0.997. Each amino acid p-nitroaniline substrate tested is shown in the left colurnr, along with its polar/non-polar/acidic/basic nature. Vmax is a measure of the theoretical enzyme maximal velocity, Km is the Michaelis-Menten constant for each ARTS-1/substrate combination, kcat is the first order rate constant (i.e., the turnover number) for the ARTS-1/substrate combination, and kcat/Km is the second order rate constant for the ARTS-1/substrate combination (i.e., a measure of overall catalytic efficiency).
(§2) Aminopeptidase activity of the recombinant GST-ARTS-1 fusion protein was assessed by determination of the rate of amide bond hydrolysis of amino acid p-nitroanilide substrates (Bachem). Amino acid p-nitroanilides (final concentrations 0.25 to 8 mM) were incubated at room temperature with 24 pmoles of GST-ARTS-1 fusion protein in 200 μl of 50 mM Tris, pH 7.5 for 1 hour. Reactions were terminated by addition of 280 μl of 3M sodium acetate (pH 5.2). The rate of amide bond hydrolysis was determined by measuring the absorbance of p-nitroaniline at 380 nm (See, Table 3, supra). Spontaneous hydrolysis of the substrate was corrected for by subtracting the absorbance of control incubations which were terminated immediately. Kinetic constants were determined by Lineweaver-Burk analysis. Each experimental point was assayed in triplicate and each determination utilized six concentrations of each amino acid p-nitroanilide substrate. Correlation coefficients for each line generated were greater than 0.997.

Substrate in series [2]: CC[C@H](C)[C@H](N)C(=O)Nc1ccc([N+](=O)[O-])cc1
The class given is biochemical, human. The following applies: other: aa-pNA substrate with GST-ARTS-1; Lineweaver-Burk. As for the experimental part:
as §1, §2

Substrate in series [3]: NCC(=O)Nc1ccc([N+](=O)[O-])cc1
The format is biochemical, human. The following applies: other: aa-pNA substrate with GST-ARTS-1; Lineweaver-Burk. As for the experimental part:
as §1, §2

Substrate in series [4]: N[C@@H](Cc1ccccc1)C(=O)Nc1ccc([N+](=O)[O-])cc1
The class given is biochemical, human. The following applies: other: aa-pNA substrate with GST-ARTS-1; Lineweaver-Burk. How it is done:
as §1, §2

By Km is commonly meant the substrate concentration at which the rate is half of its maximum. Usually kcat/Km stands for the turnover number divided by the Michaelis constant.

Take `N=C(N)NCCC[C@H](N)C(=O)Nc1ccc([N+](=O)[O-])cc1` [Arg]: in series [1], the Vmax result is “No Activity”, the kcat result is “No Activity” and the “aminopeptidase activity of recombinant GST-ARTS-1 against the amino acid substrate” value (from here on “aminopeptidase activity”) is on record as “no activity”.
With `CSCC[C@H](N)C(=O)Nc1ccc([N+](=O)[O-])cc1` [Met], in series [1], the Vmax stood at 13.36 ± 0.75 pmol/pmol/min, the kcat is given as 22.27 ± 1.25 s^−1 × 10^−2 and the Km came to 7.71 ± 0.43 mM.
For `N[C@@H](CS)C(=O)Nc1ccc([N+](=O)[O-])cc1` [Cys], in series [1], the Vmax was 8.95 ± 0.31 pmol/pmol/min, the kcat is 14.92 ± 0.52 s^−1 × 10^−2 and the Km is 4.57 ± 0.2 mM.
For the molecule `CC[C@H](C)[C@H](N)C(=O)Nc1ccc([N+](=O)[O-])cc1` [Ile, isoleucine p-nitroanilide], the Vmax in series [1] turned out to be 5.81 ± 0.87 pmol/pmol/min.
With `N[C@@H](CCC(=O)O)C(=O)Nc1ccc([N+](=O)[O-])cc1` [Glu], in series [1], the Vmax entry is listed as “No Activity”, the kcat entry was “No Activity” and the “aminopeptidase activity” value is given as “no activity”.
As to `C[C@H](N)C(=O)Nc1ccc([N+](=O)[O-])cc1` [Ala], in series [1], the Vmax was 26.18 ± 0.24 pmol/pmol/min, the kcat is 43.63 ± 0.40 s^−1 × 10^−2 and the Km was found to be 16.8 ± 0.18 mM.
For the molecule `NCC(=O)Nc1ccc([N+](=O)[O-])cc1` [Gly, glycine p-nitroanilide], the Vmax in series [1] was 8.67 ± 0.05 pmol/pmol/min.
On the same count and under the same terms, to `N[C@@H](Cc1ccccc1)C(=O)Nc1ccc([N+](=O)[O-])cc1` [Phe, phenylalanine p-nitroanilide] belongs 5.14 ± 0.04 pmol/pmol/min.
`NCCCC[C@H](N)C(=O)Nc1ccc([N+](=O)[O-])cc1` [Lys]: in series [1], the Vmax entry was “No Activity”, the kcat entry is “No Activity” and the “aminopeptidase activity” value is reported as “no activity”.
Take `N[C@@H](CC(=O)O)C(=O)Nc1ccc([N+](=O)[O-])cc1` [Asp]: in series [1], the Vmax entry was “No Activity”, the kcat result is reported as “No Activity” and the “aminopeptidase activity” value is given as “no activity”.
Regarding `N[C@@H](Cc1cnc[nH]1)C(=O)Nc1ccc([N+](=O)[O-])cc1` [His], in series [1], the Vmax entry is recorded as “No Activity”, the kcat entry is given as “No Activity” and the “aminopeptidase activity” value is listed as “no activity”.
Regarding `CC(C)[C@H](N)C(=O)Nc1ccc([N+](=O)[O-])cc1` [Val], in series [1], the Vmax was determined as 5.31 ± 0.31 pmol/pmol/min, the kcat was found to be 8.85 ± 0.52 s^−1 × 10^−2 and the Km was determined as 5.69 ± 0.26 mM.
In the same order, the values of `O=C(Nc1ccc([N+](=O)[O-])cc1)[C@@H]1CCCN1` [Pro] are 5.29 ± 0.08 pmol/pmol/min, 8.82 ± 0.13 s^−1 × 10^−2 and 4.68 ± 0.06 mM.
Turning to `CC(C)C[C@H](N)C(=O)Nc1ccc([N+](=O)[O-])cc1` [Leu], in series [1], the Vmax is on record as 9.45 ± 0.43 pmol/pmol/min, the kcat is given as 15.75 ± 0.72 s^−1 × 10^−2 and the Km was determined as 5.26 ± 0.25 mM.

B1: recombinant GST-ARTS-1 fusion protein (Homo sapiens) (protein)
chain: SWCQSTEASPKRSDGTPFPWNKIRLPEYVIPVHYDLLIHANLTTLTFWGTTKVEITASQPTSTIILHSHHLQISRATLRKGAGERLSEEPLQVLEHPRQEQIALLAPEPLLVGLPYTVVIHYAGNLSETFHGFYKSTYRTKEGELRILASTQFEPTAARMAFPCFDEPAFKASFSIKIRREPRHLAISNMPLVKSVTVAEGLIEDHFDVTVKMSTYLVAFIISDFESVSKITKSGVKVSVYAVPDKINQADYALDAAVTLLEFYEDYFSIPYPLPKQDLAAIPDFQSGAMENWGLTTYRESALLFDAEKSSASSKLGITMTVAHELAHQWFGNLVTMEWWNDLWLNEGFAKFMEFVSVSVTHPELKVGDYFFGKCFDAMEVDALNSSHPVSTPVENPAQIREMFDDVSYDKGACILNMLREYLSADAFKSGIVQYLQKHSYKNTKNEDLWDSMASICPTDGVKGMDGFCSRSQHSSSSSHWHQEGVDVKTMMNTWTLQKGFPLITITVRGRNVHMKQEHYMKGSDGAPDTGYLWHVPLTFITSKSDMVHRFLLKTKTDVLILPEEVEWIKFNVGMNGYYIVHYEDDGWDSLTGLLKGTHTAVSSNDRASLINNAFQLVSIGKLSIEKALDLSLYLKHETEIMPVFQGLNELIPMYKLMEKRDMNEVETQFKAFLIRLLRDLIDKQTWTDEGSVSERMLRSQLLLLACVHNYQPCVQRAEGYFRKWKESNGNLSLPVDVTLAVFAVGAQSTEGWDFLYSKYQFSLSSTEKSQIEFALCRTQNKEKLQWLLDESFKGDKIKTQEFPQILTLIGRNPVGYPLAWQFLRKNWNKLVQKFELGSSSIAHMVMGTTNQFSTRTRLEEVKGFFSSLKENGSQLRCVQQTIETIEENIGWMDKNFDKIRVWLQSEKLERM
notes: ARTS-1 extracellular domain (i.e., the ectodomain; amino acids 30–941) was PCR amplified; made in house
As for B1, in series [2], the Km is 1.67 ± 0.02 mM, the kcat came to 0.0968 ± 0.0015 s⁻¹ and the kcat/Km came to 58 M⁻¹ s⁻¹. For the same molecule, in series [3], the Km is 3.67 ± 0.03 mM, the kcat was determined as 0.1445 ± 0.0008 s⁻¹ and the specificity constant (kcat/Km) worked out at 39.4 M⁻¹ s⁻¹. For the same molecule, in series [4], the Km came to 1.66 ± 0.03 mM, the kcat was 0.0857 ± 0.0006 s⁻¹ and the kcat/Km was found to be 51.6 M⁻¹ s⁻¹.

Values taken from patent US7135303B2, “Regulators of type-1 tumor necrosis factor receptor and other cytokine receptor shedding” (The United States of America as represented by the …, priority 2000, dated 2006).
